# From US10730857B2, “Benzocyanine compounds” (Pierce Biotechnology, Inc., priority 2011, dated 2020)
# Legend:
# [1] = Absorbance/emission spectral properties and fluorescence intensity of the dyes; type: physicochemical; details: 10 μg/ml in PBS buffer pH 7.2, FIG. 1
# Procedure: Emission/excitation profiles for inventive and commercial compounds was determined by reconstituting the compounds in DMF at 10 mg/ml and then diluting in PBS buffer pH 7.2 to 10 μg/ml.
# lamin A in U20S cells = experiment: Immunofluorescence, mouse anti-lamin A, U20S cells (FIG. 16); type: cell-based
# Procedure: (§1) The inventive compounds and commercial dye were evaluated for immunofluorescence in a second cell based assay using the following protocol. Frozen U20S cell plates stored at −20° C. were placed overnight at 4° C. Storage buffer (PBS) was removed and the cells were permeabilized for 15 min (100 μl/well) with 0.1% Triton-X100 in 1×PBS buffer. Plates were blocked for 30 min in 2% BSA in 1×PBS-0.1% Trion-X100. Primary antibodies diluted in 2% BSA in 1×PBS-0.1% Trion-X100 were added to the plates (column 1-11; column 12 included only blocker) and incubated five hours at room temperature. Mouse anti-lamin A was added at 2 μg/ml and rabbit anti-lamin B1 was added at 4 μg/ml. After incubation, the antibody solution was removed from the plates and the plates were washed PBS-0.5% Tween-20 (2×100 μl/well). Next, GAM and GAR secondary antibodies labeled with DyLight 680-NHS, DyLight 680B-NHS, 679 Compound 1-NHS, and Cy5.5 Mono Ester were diluted to 4 μg/ml in PBS and incubated with the cells for one hour at room temperature. GAM and GAR conjugated to DyLight 680-NHS, DyLight 680B-NHS, 679 Compound 1-NHS, and Company B Compound at 10× molar excess were diluted to 4 μg/ml in PBS and then serially diluted 1:1 in the plate to the following concentrations: 2 μg/ml, 1 μg/ml, 0.5 μg/ml, 0.25 μg/ml, 0.125 μg/ml and/or 0.0625 μg/ml. The plates were washed 3× with 100 μl/well PBS, and Hoechst stain diluted to 0.1 μg/ml in PBS was added to each well (100 μl/well). The plates were scanned on ArrayScan Plate Reader for imaging and quantitation.
# lamin B1 in U20S cells = experiment: Immunofluorescence, rabbit anti-lamin B1, U20S cells, GAR conjugates; type: cell-based
# Procedure: as §1, with “GAM and GAR conjugated to DyLight 680-NHS, DyLight 680B-NHS, 679 Compound 1-NHS, and Company B Compound at 10× molar excess were diluted to 4 μg/ml in PBS and then serially diluted 1:1 in the plate to the following concentrations: 2 μg/ml, 1 μg/ml, 0.5 μg/ml, 0.25 μg/ml, 0.125 μg/ml and/or 0.0625 μg/ml. The plates were washed 3× with 100 μl/well PBS, and Hoechst stain diluted to 0.1 μg/ml in PBS was added to each well (100 μl/well).” left out
# lamin A in A549 cells = experiment: Immunofluorescence, mouse anti-lamin A, A549 cells (FIG. 15); type: cell-based; details: GAM conjugates at 4× to 12× molar excess
# Procedure: The inventive compounds were evaluated for immunofluorescence in cell based assays using the following protocol. Frozen A549 cell plates stored at −20° C. were placed for 30 min 50° C. Storage buffer (PBS) was removed and the cells were permeabilized for 15 min (100 μl/well) with 0.1% Triton-X100 in 1×PBS buffer. Plates were blocked for 30 min in 2% BSA in 1×PBS-0.1% Trion-X100. Primary antibodies diluted in 2% BSA in 1×PBS-0.1% Trion-X100 were added to the plates (column 1-11; column 12 included only blocker) and incubated […]. Mouse anti-lamin A was added at 1 μg/ml and rabbit anti-lamin B1 was added at 3 μg/ml. After overnight incubation, the antibody solution was removed from the plates and the plates were washed with PBS-0.5% Tween-20 (2×100 μl/well). GAM and GAR secondary antibodies labeled with DyLight 680-NHS, DyLight 680B-NHS, 679 Compound 1-NHS and Company B Compound-NHS were diluted to 4 μg/ml in PBS, added and incubated for one hour at room temperature. The plates were then washed three times with 100 μl/well PBS, and Hoechst stain diluted to 0.1 μg/ml in PBS was added to each well (100 μl/well). The plates were scanned on ArrayScan Plate Reader for imaging and quantitation.
# streptavidin (SA) = streptavidin (SA) (Streptomyces avidinii, UniProt P22629); experiment: Labeling efficiency (degree of labeling) of streptavidin
# Procedure: Inventive and commercial compounds, each as the NHS ester, were conjugated to goat anti-mouse (GAM) antibodies, goat anti-rabbit (GAR) antibodies, and streptavidin (SA). GAM, GAR, and SA, at a concentration of 10 mg/ml in phosphate buffered saline (PBS), were dialyzed against 50 mM borate buffer, pH 8.5. […]
# The labeled compounds, also termed dyes or labels, were subjected to Pierce Dye Removal Resin (PDDR) to remove the unlabeled (free) compound; 100 μl of the packed resin was used per mg of protein purified. The purified antibody-labeled dyes were then diluted 1:50 in PBS and scanned for absorbance from 700 nm to 230 nm to determine the protein concentration, and to determine the mole dye to mole protein ratio. Each conjugate was diluted 1:10 in 50% glycerol and heated in the presence of 10 mM dithiothreitol (DTT) for 5 min at 95° C., then separated by electrophoresis on polyacrylamide gels in the presence of sodium dodecyl sulfate (SDS-PAGE). The gels were scanned using the Typhoon 9400 Imager to verify removal of the unconjugated compound. Labeling efficiency was compared, with results showing degree of labeling below.
# Sequence of streptavidin (SA) (P22629 25-183, species assumed): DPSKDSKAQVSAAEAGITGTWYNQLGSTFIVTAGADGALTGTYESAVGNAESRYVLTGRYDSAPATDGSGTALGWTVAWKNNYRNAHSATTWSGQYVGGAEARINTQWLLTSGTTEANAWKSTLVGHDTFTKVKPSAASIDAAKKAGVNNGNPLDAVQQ
structure (smiles),measurement,setting,value
"COCC[N+]1=C(/C=C/C=C/C=C2/N(CCCCCC(=O)O)c3ccc4c(S(=O)(=O)[O-])cc(S(=O)(=O)[O-])cc4c3C2(C)C)C(C)(CCCS(=O)(=O)[O-])c2c1ccc1c(S(=O)(=O)[O-])cc(S(=O)(=O)[O-])cc21.[Na+].[Na+].[Na+].[Na+] (centres unmarked) [679 Compound 1, 6-((E)-2-((2E,4E)-5-(3-(2-methoxyethyl)-1-methyl-6,8-disulfonato-1-(3-sulfonatopropyl)-1H-benzo[e]indol-3-ium-2-yl)penta-2,4-dien-1-ylidene)-1,1-dimethyl-6,8-disulfonato-1H-benzo[e]indol-3(2H)-yl)hexanoate]",Max Abs,[1]; Cary UV spectrophotometer,679 nm
same,Max E,"[1]; emission, Tecan Safire",704 nm
same,Mean Total Intensity 2X,"lamin A in U20S cells; GAM conjugated at 2X molar excess, FIG. 16",232482
same,Mean Total Intensity 3X,"lamin A in U20S cells; GAM conjugated at 3X molar excess, FIG. 16",263580
same,Mean Total Intensity 4X,"lamin A in U20S cells; GAM conjugated at 4X molar excess, FIG. 16",330865
same,S/B (in words),lamin A in U20S cells; GAM conjugates at the low molar excesses,comparable to each other and to DyLight 680
same,Overall fluorescence signal intensity (in words),lamin B1 in U20S cells; GAR conjugates,about two times higher compared to DyLight 680
same,S/B (in words),"lamin B1 in U20S cells; GAR labeled at 2×, 3× or 4× molar excess",comparable to each other and to DyLight 680 conjugates
same,performance in immunofluorescence (in words),lamin A in A549 cells,very similar performance to corresponding DyLight 680B conjugates
same,degree of labeling,streptavidin (SA); SA-6X molar excess,4.0
same,degree of labeling,streptavidin (SA); SA-8X molar excess,5.0
